Laboratory results from paper PMC4684214, “Timberol® Inhibits TAAR5-Mediated Responses to Trimethylamine and Influences the Olfactory Threshold in Humans” (PLoS ONE, 2015).

Molecular target: T1, hOR51E1 (Homo sapiens, UniProt Q8TCB6)
T1 construct: gene OR51E1; recombinant receptor plasmid transfected in HANA3A cells; with G-alpha-olf, RTP1S and M3 muscarinic receptor
T1 sequence (Q8TCB6 1-318): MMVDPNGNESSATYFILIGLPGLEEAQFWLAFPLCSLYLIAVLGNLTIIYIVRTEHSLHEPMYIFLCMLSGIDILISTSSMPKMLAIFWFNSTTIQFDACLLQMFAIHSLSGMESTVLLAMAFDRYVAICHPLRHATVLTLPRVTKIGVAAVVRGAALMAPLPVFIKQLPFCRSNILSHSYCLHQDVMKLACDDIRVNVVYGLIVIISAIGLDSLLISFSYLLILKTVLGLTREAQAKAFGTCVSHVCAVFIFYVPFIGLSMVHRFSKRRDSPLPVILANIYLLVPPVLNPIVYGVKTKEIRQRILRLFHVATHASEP
Test: Cre-luciferase reporter gene assay (cAMP)
Assay type: cell-based
Details: agonist; M3 muscarinic receptor co-expressed; 37°C, 4 h
Text: Cre-luciferase reporter gene assay (cAMP) on hOR51E1 | (B) nonanoic acid and hOR51E1

EC50: 103 ± 23.1 µM
Compound: CCCCCCCCC(=O)O [nonanoic acid]
